Laboratory results as given in US6677310B1, “Ring-expanded nucleosides and nucleotides” (Nabi, priority 1999, dated 2004).
≈ marks a conversion by molar mass, not a printed value. Like-named read-outs stand apart in the source and are kept apart here.

Legend:
[1] = Cell proliferation assay, rapidly growing HFF cells; assay type: cell-based; conditions: human, rapidly growing human foreskin fibroblast (HFF) cells; for IC50 at 72 h: rapidly growing HFF cells, read-out: Cytotoxicity (IC50), HFF Cells
Experimental: The toxicity of Compounds 14-1 and 14-2 was also measured in rapidly growing human foreskin fibroblast (HFF) cells and Daudi cells by cell proliferation assay (National Institute of Allergy and Infectious Diseases (NIAID), NIH, Bethesda, Md.). According to the assay method, the appropriate cells were seeded in six-well plates in MEM containing 10% FBS. Twenty four hours later, the cells were treated with several dilutions of the test compounds covering a range of 0.03-100 μg/ml. The plates were incubated in a CO2 incubator at 37° C. for 72h. The cells were washed after removing the media and subsequently released from the plate wells by the addition of 1 ml of 0.25% trypsin. The contents in the wells were mixed, diluted with Isotone III and counted using a Coulter counter. The CC50 values (concentration of compound giving 50% inhibition of cell proliferation) were calculated by linear regression analysis. Toxicity of Compound 14-1 was also evaluated in bone marrow precursor cells by previously published procedure (Sommadossi, J.-P., et al., Biochem. Pharmacol., 44:1921-1925, 1992).
(A) Cell Proliferation Assay: Twenty-four hours prior to assay, cells (HFF or Daudi) were seeded in six-well plates at a concentration of 2.5×10^4 cells per well in MEM containing 10% FBS. On the day of the assay, drugs were diluted serially in MEM containing 10% FBS at increments of 1:5 covering a range from […]. For drugs that had to be solubilized in DMSO, control wells receive MEM containing 10% DMSO. The media from the wells was then aspirated, and 2 mL of each drug concentration was added to each well. The cells were incubated in a CO2 incubator at 37° C. for 72 h. At the end of this time, the media-drug solution was removed, and the cells were washed. Trypsin-EDTA (0.25%, 1 mL) was added to each well and incubated until the cells started to come off the plate. The cell-media mixture was then pipeted up and down vigorously to break up the cell suspension and 0.2 mL of the mixture added to 9.8 mL of Isoton III and the cells were counted using a Coulter Counter. Each sample was counted three times with two replicate wells per sample. The IC50 values were calculated using a computer program.

[2] = Neutral red uptake assay, stationary HFF cells; assay type: cell-based; conditions: human, read-out: Cytotoxicity (IC50), Neutral Red Uptake
Experimental: (B) Neutral Red Uptake Assay: Twenty-four hours prior to assay, HFF cells were plated into 96-well plates at a concentration of 2.5×10^4 cells/well. After 24 h, the media was aspirated, and […] of media containing drug was added to the first row of wells and then diluted serially 1:5 using the automated Cetus Liquid Handling System. The plates were then incubated in a Co2 incubator at 37° C. for 7 days. At this time the media/drug was removed, cells were washed, 200 μL/well of 0.01% neutral red in PBS was added, and the mixture was incubated for 1 h. The dye was removed, and the cells were washed using a Nunc Plate Washer. After the wash was removed, […] of 50% ethanol/1% aqueous acetic acid was added. The plates were placed on a rotating shaker for 15 min, and the optical densities were then read at 540 nm using a plate reader.
Data Analysis: Dose-response relationships were constructed by linearly regressing the percent inhibition of parameters derived in the preceding sections against log drug concentrations. Fifty-percent inhibitory (IC50) concentrations were calculated from the regression lines.

HCMV = experiment: Cytopathic effect (CPE) inhibition assay, CMV in HFF cells; conditions: for EC50: Human betaherpesvirus 5, HFF, 336 h, read-out: Antiviral Activity (EC50), anti-HCMV; for SI (Selectivity Index), Neutral Red Uptake: IC50 (neutral red, stationary HFF) divided by anti-HCMV EC50; for SI (Selectivity Index), HFF Cells: IC50 (rapidly growing HFF) divided by anti-HCMV EC50
Experimental: Cytopathic Effect (CPE) Inhibition Assay: Low passage HFF cells were seeded into 96-well tissue culture plates 24 h prior to use at a cell concentration of 2.5×10^5 cells/mL in 0.1 mL of MEM supplemented with 10% FBS. The cells were incubated for 24 h at 37° C. in a CO2 incubator. After incubation, the medium was removed, and 100 μL of MEM containing 2% FBS was added to all but the first row. In the first row, 125 μL of experimental drug was added in triplicate wells. Medium alone was added to both cell and virus control wells. The drug in the first row of wells was then diluted serially 1:5 throughout the remaining wells by transferring 25 μL using the Cetus Liquid Handling Machine. After a 1 h incubation, 100 μL of the appropriate virus concentration was added to each well, excluding cell control wells which received 100 μL of MEM. The virus concentration added was 2500 pfu per well. The plates were then incubated at 37° C. in a CO2 incubator for 14 days. An additional 50 μL of MEM was added on day 7. After the incubation period, media was aspirated, and the cells were stained with a 5% crystal violet/ethanol/formaldehyde solution for 4 h. The stain was then removed, and the plates were rinsed with tap water until all excess stain was removed. The plates were allowed to dry for 24 h and then read on a Bio-Tek Instruments Microplate reader at 630 nm.

rabbit liver guanase = target: T1, rabbit liver guanase (Oryctolagus cuniculus, UniProt G1T386); experiment: Inhibition of guanase (Examples 10 and 11); assay type: biochemical; conditions: Lineweaver-Burk plot; for Ki: Tris buffer pH 7.6, 21° C., substrate guanine
T1 construct: employing rabbit liver guanase; from tissue; host or cells: rabbit liver
T1 sequence (G1T386 1-454): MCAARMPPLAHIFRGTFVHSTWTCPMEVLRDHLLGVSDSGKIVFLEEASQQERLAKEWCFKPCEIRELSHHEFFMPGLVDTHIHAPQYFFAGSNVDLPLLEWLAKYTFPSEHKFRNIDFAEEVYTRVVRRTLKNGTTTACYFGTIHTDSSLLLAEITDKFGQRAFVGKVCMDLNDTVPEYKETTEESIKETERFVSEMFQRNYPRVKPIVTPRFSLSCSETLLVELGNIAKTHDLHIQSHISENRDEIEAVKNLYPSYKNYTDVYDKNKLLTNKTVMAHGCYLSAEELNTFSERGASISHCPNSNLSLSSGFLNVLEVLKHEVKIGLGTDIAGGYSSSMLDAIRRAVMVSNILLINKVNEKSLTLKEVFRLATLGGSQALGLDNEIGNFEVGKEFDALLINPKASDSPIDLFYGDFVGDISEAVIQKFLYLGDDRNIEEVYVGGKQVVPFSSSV
Description: The concentration of the inhibitor ranged from 4×10^−5 M to 8×10^−5 M (Example 7), and 4.4×10^−5 M to 8.9×10^−5 M (Example 8). The concentration of the enzyme used for each assay was 0.0082 units/mL.

Hepatitis B virus (HBV) = experiment: Anti-HBV assay in 2.2.15 cells (virion DNA, HBV RI); assay type: cell-based; conditions: 9 days; for EC90: 10 fold inhibition
Experimental: The anti-HBV assays were performed according to the published protocol of Korba and Milman, (Korba, B. E.; Milman, G. Antiviral Res., 15, 217 1991), using cultures of 2.2.15 cells. In brief, the assay consisted of (a) seeding the chronically HBV-producing human liver cells (Acs et al. Proc. Nat. Acad. Sci., 84, 464 1987) into 24-well tissue culture plates, and growing to confluence, (b) adding test compounds daily for a continuous 9-day period, harvesting culture media after day 9 and (c) lysing treated cells 24 hours following day 9 of treatment for the analysis of extracellular virion DNA and intracellular HBV genomic forms.
Anti-HBV activity and the toxicity against confluent 2.2.15 cells were determined by the previously described procedure (Korba, B. E., et al. Antivir. Res., 19:55-70, 1992; Korba, B. E., et al. Antivir. Res., 15:217-228, 1991). Briefly, confluent cultures of HBV transfected 2.2.15 cells were maintained on either 96-well or 24-well flat-bottomed tissue culture plates in RPMI 1640 medium with 2% fetal bovine serum (FBS). The cells were treated with test compounds daily for nine consecutive days. The culture media were harvested on day 9 to quantify the amount of virion DNA. On day 10, the cells were lysed to quantify the amount of intracellular HBV replicative intermediates (RI). The quantification of virion DNA and the HBV RI were done by blot hybridization methods (Korba, B. E., et al. Antivir. Res., 19:55-70, 1992; Korba, B. E., et al. Antivir. Res., 15:217-228, 1991). Cellular toxicity against separate cultures of confluent 2.2.15 cells was measured after treatment with the compounds for nine days under identical culture conditions as those used for the antiviral assay (Korba, B. E., et al. Antivir. Res., 19:55-70, 1992). Uptake of neutral red dye by treated cells was compared with dye uptake by untreated control cells (Korba, B. E., et al. Antivir. Res., 19:55-70, 1992).

## Nc1nc(O)c2ncn(COC(CO)CO)c2n1 [Ganciclovir, reference compound]
[1]; Rapidly growing HFF cells
  CC50 at 72 h: > 40 µg/mL
[1]
  IC50 at 72 h: 40 µg/mL (≈ 157 µM)
[2]
  IC50 at 7 days: > 100 µg/mL
HCMV
  EC50: 0.05 µg/mL (≈ 0.196 µM)
  SI (Selectivity Index), Neutral Red Uptake: >2000
  SI (Selectivity Index), HFF Cells: 800

## COC(=O)C1(N)NC(=O)c2[nH]cnc2NC1=O (stereo not shown) [Example 7, 6-Amino-6-methoxycarbonyl-4,5,7,8-tetrahydro-6H-imidazo[4,5-e]-[1,4]diazepine-5,8-dione]
Rabbit liver guanase
  mode of inhibition of guanase: competitive inhibitors
  Ki: 190000 nM

## N=c1nc(N)c2ncn(Cc3ccccc3)c2c(N)n1 [Example 3, 4,8-Diamino-1-benzyl-6-iminoimidazo[4,5-e][1,3]diazepine]
other
  melting point: 202 to 204 °C

## Nc1ccn([C@H]2CS[C@@H](CO)O2)c(=O)n1 [Compound 3TC, 2′,3′-dideoxy-L-3′-thiacytidine, reference compound]
Hepatitis B virus (HBV); extracellular HBV virion DNA, read-out: EC90 Virion
  EC90: 198 ± 20 nM
Hepatitis B virus (HBV); extracellular HBV virion DNA, read-out: EC50 Virion
  EC50: 65 ± 10 nM
Hepatitis B virus (HBV); intracellular HBV DNA replicative intermediates, read-out: EC90 HBV RI
  EC90: 922 ± 85 nM
Hepatitis B virus (HBV); intracellular HBV DNA replicative intermediates, read-out: EC50 HBV RI
  EC50: 172 ± 19 nM

## COC(=O)C1(OC)NC(=O)c2[nH]cnc2NC1=O (stereo not shown) [Example 8, 6-Methoxy-6-methoxycarbonyl-4,5,7,8-tetrahydro-6H-imidazo[4,5-e][1,4]-diazepine-5,8-dione]
Rabbit liver guanase
  mode of inhibition of guanase: competitive inhibitors
  Ki: 540000 nM

## N=c1nc(N)c2nc[nH]c2c(N)n1 [Example 1, 4,8-Diamino-6-imino-1H-imidazo[4,5-e][1,3]diazepine]
other
  melting point: > 220 °C

## O=C1c2nc(Br)n(Cc3ccccc3)c2N(Cc2ccccc2)C(=O)CN1Cc1ccccc1 [Compound 19, 3,4,7-Tribenzyl-2-bromo-4,5,7,8-tetrahydro-6H-imidazo [4,5-e][1,4]diazepine-5,8-dione]
other
  melting point: 174 to 176 °C
[1]
  IC50 at 72 h: 56.5 µg/mL (≈ 110 µM)
[2]
  IC50 at 7 days: 88.1 µg/mL (≈ 171 µM)
HCMV
  EC50: 8.1 µg/mL (≈ 15.7 µM)
  SI (Selectivity Index), Neutral Red Uptake: 10.9
  SI (Selectivity Index), HFF Cells: 6.98
